The record followed here is patent US20120035247A1, “RNA Interference Mediated Inhibition of Signal Transducer and Activator of Transcription 6 (STAT6) Gene Expression Using Short Interfering Nucleic Acid (siNA)” (Merck Sharp & Dohme Corp., priority 2009, published 2012).

For series [1], the system named is STAT6 mRNA. The series is described as follows: STAT6 siNA screen and dose response in human A549 cells, STAT6 mRNA by quantitative RT-PCR (Taqman). Type of series: cell-based. As to conditions: human A549 cells, 10 nM siNA, 24 hrs, normalized to GAPDH and non-targeting control, mean ± S.D., n = 3. The method in brief:
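A549 cells were transfected with siNA–RNAiMax complexes at a final 10 nM siNA and incubated 24 h without a medium change. STAT6 mRNA was measured by TaqMan qRT-PCR on cell lysates. Knock-down was calculated by the comparative Ct (ΔΔCt) method against the non-targeting control siNA, with relative expression taken as 2^−ΔΔCt.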
Background: Quantitative PCR measures a nucleic acid by following its amplification.

Series [2] concerns STAT6 mRNA. The series is described as follows: STAT6 siNA screen in mouse NIH 3T3 cells, STAT6 mRNA by quantitative RT-PCR (Taqman). Type of series: cell-based. As to conditions: mouse NIH3T3 cells, 10 nM siNA, 24 hrs, normalized to GAPDH and non-targeting control, n = 2. An outline of the steps:
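NIH 3T3 cells, 5000/well, transfected after 24 h with siNA (10 nM final) via RNAiMax and harvested 24 h later. STAT6 mRNA quantified by TaqMan RT-qPCR with GAPDH; knock-down by comparative Ct (2^−ΔΔCt) against non-targeting control siNA.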

[invAb] = inverted abasic unit; m = 2'-O-methyl; r = 2'-OH (RNA); f = 2'-fluoro

On to “30017-DC: STAT6 siNA duplex; sense SEQ ID NO: 98, antisense SEQ ID NO: 99; target GAUGCUUUCUGUUACAACA, site 421 (sense GAUGCUUUCUGUUACAACATT; antisense UGUUGUAACAGAAAGCAUCUU; sense: DNA at AGT, 2'-fluoro at CU, [invAb] at 5' end, 3' end, backbone not given here; antisense: sugars from the 5' end rrrfmfmmfmmmmmmfmffmm, backbone not given here) [STAT6 siNA duplex; target GAUGCUUUCUGUUACAACA, site 421]”, for which the “% KD STAT6” value is recorded as −14.9 ± 9.1% with STAT6 mRNA [1] and 85.1 ± 2% with STAT6 mRNA [2].

On to “30003-DC: STAT6 siNA duplex; sense SEQ ID NO: 70, antisense SEQ ID NO: 71; target CGUGGAAAGGGACCAACCA, site 2218 (sense CGUGGAAAGGGACCAACCATT; antisense UGGUUGGUCCCUUUCCACGUU; sense: DNA at AGT, 2'-fluoro at CU, [invAb] at 5' end, 3' end, backbone not given here; antisense: sugars from the 5' end rrrffmmfffffffffmfmmm, backbone not given here) [STAT6 siNA duplex; target CGU…, site 2218]”, for which the “% KD STAT6” value with STAT6 mRNA [1] is reported as −11.1 ± 23.2%; in the series with STAT6 mRNA [2], −22.6 ± 6.6%.

Regarding “30026-DC: STAT6 siNA duplex; sense SEQ ID NO: 116, antisense SEQ ID NO: 117; target GCAGUGGUUUGAUGGUGUC, site 1816 (sense GCAGUGGUUUGAUGGUGUCTT; antisense GACACCAUCAAACCACUGCUU; sense: DNA at AGT, 2'-fluoro at CU, [invAb] at 5' end, 3' end, backbone not given here; antisense: sugars from the 5' end rrrmffmffmmmffmffmfmm, backbone not given here) [STAT6 siNA duplex; target GCAGUGGUUUGAUGGUGUC, site 1816]”, the “% KD STAT6” value worked out at 58.4 ± 8.1% in the series with STAT6 mRNA [1] and 59.8 ± 1.1% in the series with STAT6 mRNA [2].

“30016-DC: STAT6 siNA duplex; sense SEQ ID NO: 96, antisense SEQ ID NO: 97; target GCCAGAUAACCAUGCCCUU, site 2447 (sense GCCAGAUAACCAUGCCCUUTT; antisense AAGGGCAUGGUUAUCUGGCUU; sense: DNA at AGT, 2'-fluoro at CU, [invAb] at 5' end, 3' end, backbone not given here; antisense: sugars from the 5' end rrrmmfmfmmffmfffmmfmm, backbone not given here) [STAT6 siNA duplex; target GCCAGAUAACCAUGCCCUU, site 2447]”: the “% KD STAT6” value with STAT6 mRNA [1] is on record as −20 ± 8.9%; with STAT6 mRNA [2], 61.8 ± 2.3%.

Regarding “29995-DC: STAT6 siNA duplex; sense SEQ ID NO: 54, antisense SEQ ID NO: 55; target CAGGAUGGCUCUCCACAGA, site 2009 (sense CAGGAUGGCUCUCCACAGATT; antisense UCUGUGGAGAGCCAUCCUGUU; sense: DNA at AGT, 2'-fluoro at CU, [invAb] at 5' end, 3' end, backbone not given here; antisense: sugars from the 5' end rrrmfmmmmmmffrffffmmm, backbone not given here) [STAT6 siNA duplex; target CAGGAUGGCUCUCCACAGA, site 2009]”, the “% KD STAT6” value with STAT6 mRNA [1] is reported as 20.4 ± 5.1%; in the series with STAT6 mRNA [2] it was −6.6 ± 1.3%.

“30004-DC: STAT6 siNA duplex; sense SEQ ID NO: 72, antisense SEQ ID NO: 73; target GCCUUCUUAUGACCUUGGA, site 2272 (sense GCCUUCUUAUGACCUUGGATT; antisense UCCAAGGUCAUAAGAAGGCUU; sense: DNA at AGT, 2'-fluoro at CU, [invAb] at 5' end, 3' end, backbone not given here; antisense: sugars from the 5' end rrrmmmmffmfmmmmmmmfmm, backbone not given here) [STAT6 siNA duplex; target GCCUUCUUAUGACCUUGGA, site 2272]”: the “% KD STAT6” value is listed as 3.1 ± 19.6% in the series on STAT6 mRNA [1] and −12.8 ± 9.1% in the series on STAT6 mRNA [2].

For “30002-DC: STAT6 siNA duplex; sense SEQ ID NO: 68, antisense SEQ ID NO: 69; target GAUAGAAACUCCUGCUAAU, site 766 (sense GAUAGAAACUCCUGCUAAUTT; antisense AUUAGCAGGAGUUUCUAUCUU; sense: DNA at AGT, 2'-fluoro at CU, [invAb] at 5' end, 3' end, backbone not given here; antisense: sugars from the 5' end rrrmmfmmmmmfffffmffmm, backbone not given here) [STAT6 siNA duplex; target GAUAGAAACUCCUGCUAAU, site 766]”, the “% KD STAT6” value in the series on STAT6 mRNA [1] is reported as 55.9 ± 9.4%; in the series on STAT6 mRNA [2] it was −22.3 ± 3.5%.

With “30006-DC: STAT6 siNA duplex; sense SEQ ID NO: 76, antisense SEQ ID NO: 77; target CCACUAUCCUGUGGGACAA, site 1542 (sense CCACUAUCCUGUGGGACAATT; antisense UUGUCCCACAGGAUAGUGGUU; sense: DNA at AGT, 2'-fluoro at CU, [invAb] at 5' end, 3' end, backbone not given here; antisense: sugars from the 5' end rrrffffmfmmmmfmmfmmmm, backbone not given here) [STAT6 siNA duplex; target CCACUAUCCUGUGGGACAA, site 1542]”, the “% KD STAT6” value in the series on STAT6 mRNA [1] is recorded as 72.9 ± 1.7%; with STAT6 mRNA [2], −27.4 ± 8.5%.
